Activity data for one compound are collected here from ChEMBL document CHEMBL1221174, “Evolution of glutamate interactions during binding to a glutamate receptor” (Nat Chem Biol, 2005).

Assay [1] is described as follows: Binding affinity to Glutamate receptor 2 Y450F mutant S1S2 ligand binding domain assessed as induction protein vibrational state by time resolved FTIR difference spectra method.
The nature of assay [2]: Binding affinity to Glutamate receptor 2 E705D mutant S1S2 ligand binding domain assessed as induction protein vibrational state by time resolved FTIR difference spectra method.

Calls of active or inactive are those of the source. The calls are words filed in the database; no cut-off is given here.

On to `N[C@@H](CCC(=O)O)C(=O)O`, for which the result in assay [1] and in assay [2] was Active.
